Results reported in patent US20220249397A1, “Automated Dosing Protocol for Use of Cannabinoids or Other Psychoactive Substances” (Function Better Inc., priority 2021, published 2022).

What was measured:
Assay type in all cases: in vivo, human
[1] = tested on: subjects being treated for anxiety; assay: Experimental trial, 9-day dosing protocol, subjects treated for anxiety
Method: (§1) An experimental trial was conducted on 11 subjects who followed a 9-day dosing protocol for CBD oil. The subjects sought treatment for anxiety, pain, or sleep. On a daily basis, the subjects rated the intensity of their symptoms on a 0-10 numeric scale, with 0 being best and 10 being worst intensity. This scale was constructed similar to the standard ‘Numeric Pain Rating Scale’ often used in clinical practice for pain assessment.
(§2) The trial further enrolled five additional subjects. […] Days 1-3 were a maximum of 5 mg CBD; days 4-6 were a maximum of 10 mg CBD; days 7-9 were a maximum of 20 mg CBD.

[2] = tested on: subjects being treated for pain; assay: Experimental trial, 9-day dosing protocol, subjects treated for pain
Method: as §1, §2

[3] = tested on: subjects being treated for either anxiety, sleep, or pain; assay: Experimental trial, all 16 subjects combined (anxiety, sleep or pain), mean daily scores
Method: as §1, §2

user with pain = assay: Example 1: 9 day dose titration protocol by automated text messages, user treating pain; parameters: key to pain score: higher = worse pain; 8 = severe, 6 = moderate
Method: In this example This is an example of an automated text message exchange with a user for a 9 day (consecutive) dose titration protocol is sufficient to achieve a minimum effective dose. In this example, Twilio was the automated text messaging service that was used. The cannabinoid medication kit is three 15 ml bottles of CBD tincture (i.e. CBD mixed into an ethyl alcohol base): bottle #1, bottle #2, and bottle #3. Bottle #1 contains CBD at a concentration of 100 mg in 5 ml volume (20 mg/ml). Bottle #2 contains CBD at a higher concentration (2×) of 200 mg in 5 ml volume (40 mg/ml). Bottle #3 contains CBD at a further higher concentration (3×) of 300 mg in 5 ml volume (60 mg/ml). Because the three bottles have different dose amounts, to facilitate identifying the correct bottle and avoid mistakes, bottle #1 has a blue-colored label, bottle #2 has a yellow-colored label, and bottle #3 has an orange-colored label. The user inputs the product code or batch number. This ensures that the relevant dosing protocol is associated with the correct cannabinoid product.
On day #1, the user reports a pain score of 8, indicating severe pain. Accordingly, the user is instructed to take the first dose of 6.25 mg from the (blue bottle) twice daily, and continue this dose regimen for the next three days. To facilitate correct adherence to the instructions, the user is shown an image of the blue bottle and the correct liquid level marking on the graduated dropper. On day #2, the user reports a pain score of 6, indicating a reduction in pain symptoms to a moderate level.
On day #4, the user reports a pain score of 5, indicating a reduction in pain symptoms. […] The user is shown an image of the yellow bottle and the correct liquid level marking on the graduated dropper. On day #5, the user reports a pain score of 7, indicating a flare-up of the pain symptoms. The user is asked whether there were any external factors that might have caused this flare-up. […] Thus, the user is asked whether to pause the protocol to allow the user to reassess whether this treatment will be beneficial. Here, the user desires to continue CBD treatment.
Accordingly, the user is given reassurance and instructed to continue at the same dose (i.e. 12.5 mg twice daily).
It is now time for the user to increase the dose amount to stabilize the pain at that level. Accordingly, the user is instructed to switch to the orange bottle (60 mg/ml) and take 18.75 mg twice daily. The user is shown an image of the orange bottle and the correct liquid level marking on the graduated dropper. […] Accordingly, the user is instructed to continue the same dosing regimen (i.e. 18.75 mg twice daily). […] Accordingly, the user has reached the personalized minimum effective dose and is instructed to continue the same dosing regimen (i.e. 18.75 mg twice daily) from hereon. At the end of the protocol, the user also receives a summary report that indicates the minimum effective dose, the lowest pain score achieved, the starting and ending benchmarks, and a graph plotting the daily symptom scores.

With C=C(C)[C@@H]1CCC(C)=C[C@H]1c1c(O)cc(CCCCC)cc1O [CBD, cannabidiol] the minimum optimal dose ([1]; Subject #C1_8, anxiety) was 20 mg of CBD/day, the “anxiety score after completion of the protocol” value ([1]; Subject #C1_8, started with score of 5, 0-10 scale) was 1 and the minimum optimal dose ([1]; Subject #C1_10, anxiety) was 10 mg of CBD/day. The “anxiety score after completion of the protocol” value ([1]; Subject #C1_10, started with score of 7, 0-10 scale) was 2, the minimum optimal dose ([2]; Subject #C1_4, pain) was 10 mg of CBD/day and the “pain score after completion of the protocol” value ([2]; Subject #C1_4, started with score of 3, 0-10 scale) was 0. For the same compound, the “mean scores, initial versus end score” value ([3]; days 1-3 max 5 mg, days 4-6 max 10 mg, days 7-9 max 20 mg CBD, FIG. 7) was “mean scores improved”, the “mean daily scores, trend line” value ([3]; days 1-9, FIG. 8) was “downward trending line” and the pain score (user with pain; day #2, CBD tincture 6.25 mg twice daily, day #1 score 8) was 6. It also gave a pain score (user with pain; day #3, CBD tincture 6.25 mg twice daily) of 6, a pain score (user with pain; day #4, after 6.25 mg twice daily for three days) of 5 and a pain score (user with pain; day #5, 12.5 mg twice daily, flare-up) of 7. It also gave a pain score (user with pain; day #6, 12.5 mg twice daily) of 5, a pain score (user with pain; day #7, after 12.5 mg twice daily) of 4 and a pain score (user with pain; day #8, 18.75 mg twice daily) of 4. The pain score (user with pain; day #9, 18.75 mg twice daily) was 4 and the “personalized minimum effective dose” value (user with pain; reached on day #9, pain) was 18.75 mg twice daily.
